Measurements from paper PMC5218480 (PLoS ONE, 2017).

System: MV-4-11 cells
Assay: Gene expression microarray analysis (Affymetrix PrimeView) and GSEA
Assay type: cell-based, human
Parameters: RFU PODN (11730768_x_at) / Fold change /veh PODN (11730768_x_at) / RFU LINC00158 (11744669_a_at) / Fold change /veh LINC00158 (11744669_a_at) / RFU DUSP10 (11751237_a_at) / Fold change /veh DUSP10 (11751237_a_at) / RFU ID3 (11757404_x_at) / Fold change /veh ID3 (11757404_x_at) / RFU PLEKHG5 (11737974_s_at) / Fold change /veh PLEKHG5 (11737974_s_at) / RFU LRRC4B (11730491_at) / Fold change /veh LRRC4B (11730491_at) / RFU GIMAP4 (11747438_a_at) / Fold change /veh GIMAP4 (11747438_a_at) / RFU KRT8 (11758183_x_at) / Fold change /veh KRT8 (11758183_x_at) / RFU CNN1 (11734310_a_at) / Fold change /veh CNN1 (11734310_a_at) / RFU VPS37D (11726825_at) / Fold change /veh VPS37D (11726825_at) / RFU C10orf10 (11716522_x_at) / Fold change /veh C10orf10 (11716522_x_at) / RFU KIR2DL2 /// KIR2DL4 /// KIR2DL5A /// KIR2DL5B /// KIR2DS1 /// KIR2DS2 /// KIR2DS3 /// KIR2DS4 /// KIR3DL3 /// KIR3DL3 /// KIR3DS1 (11738374_at) / Fold change /veh KIR2DL2 /// KIR2DL4 /// KIR2DL5A /// KIR2DL5B /// KIR2DS1 /// KIR2DS2 /// KIR2DS3 /// KIR2DS4 /// KIR3DL3 /// KIR3DL3 /// KIR3DS1 (11738374_at) / RFU C1QL1 (11718748_at) / Fold change /veh C1QL1 (11718748_at) / RFU TMPRSS4 (11747572_a_at) / Fold change /veh TMPRSS4 (11747572_a_at) / RFU HAMP (11756126_x_at) / Fold change /veh HAMP (11756126_x_at) / RFU RNFT2 (11725882_a_at) / Fold change /veh RNFT2 (11725882_a_at) / RFU NR4A2 (11747474_a_at) / Fold change /veh NR4A2 (11747474_a_at) / RFU ABCC12 (11746883_a_at) / Fold change /veh ABCC12 (11746883_a_at) / RFU TMEM136 (11760407_x_at) / Fold change /veh TMEM136 (11760407_x_at) / RFU CLDN22 /// WWC2 (11732394_at) / Fold change /veh CLDN22 /// WWC2 (11732394_at) / RFU HLA-DPB1 (11760878_x_at) / Fold change /veh HLA-DPB1 (11760878_x_at) / RFU SPINT1 (11716480_a_at) / Fold change /veh SPINT1 (11716480_a_at) / RFU GAP43 (11754022_s_at) / Fold change /veh GAP43 (11754022_s_at) / RFU A4GNT (11735810_at) / Fold change /veh A4GNT (11735810_at) / RFU PRB3 (11715151_x_at) / Fold change /veh PRB3 (11715151_x_at) / RFU TUBB4B (11761932_at) / Fold change /veh TUBB4B (11761932_at) / RFU CAPN14 (11732068_a_at) / Fold change /veh CAPN14 (11732068_a_at) / RFU TMCC2 (11721928_a_at) / Fold change /veh TMCC2 (11721928_a_at) / RFU IRGQ (11745062_a_at) / Fold change /veh IRGQ (11745062_a_at) / RFU FAM174B (11720279_a_at) / Fold change /veh FAM174B (11720279_a_at) / RFU TMPRSS4 (11748680_a_at) / Fold change /veh TMPRSS4 (11748680_a_at) / RFU FAM212B (11763350_a_at) / Fold change /veh FAM212B (11763350_a_at) / RFU PLEKHG5 (11743358_a_at) / Fold change /veh PLEKHG5 (11743358_a_at) / RFU ZSCAN30 (11745921_a_at) / Fold change /veh ZSCAN30 (11745921_a_at) / RFU CMKLR1 (11741424_a_at) / Fold change /veh CMKLR1 (11741424_a_at) / RFU LOC101060620 /// MAPK8IP1 (11723275_at) / Fold change /veh LOC101060620 /// MAPK8IP1 (11723275_at) / RFU SPTSSB (11747773_x_at) / Fold change /veh SPTSSB (11747773_x_at) / RFU PRSS12 (11739890_at) / Fold change /veh PRSS12 (11739890_at) / RFU BIN1 (11741810_x_at) / Fold change /veh BIN1 (11741810_x_at) / RFU WNT11 (11732464_a_at) / Fold change /veh WNT11 (11732464_a_at) / RFU C10orf10 (11716521_a_at) / Fold change /veh C10orf10 (11716521_a_at) / RFU C5orf56 (11738089_at) / Fold change /veh C5orf56 (11738089_at) / RFU CYB561 (11721691_x_at) / Fold change /veh CYB561 (11721691_x_at) / RFU ANKRD19P (11752326_a_at) / Fold change /veh ANKRD19P (11752326_a_at) / RFU OR2T12 /// OR2T33 /// OR2T8 (11738714_s_at) / Fold change /veh OR2T12 /// OR2T33 /// OR2T8 (11738714_s_at) / RFU VCAN (11748164_a_at) / Fold change /veh VCAN (11748164_a_at) / RFU JSRP1 (11732532_at) / Fold change /veh JSRP1 (11732532_at) / RFU KRTAP10-11 (11738290_x_at) / Fold change /veh KRTAP10-11 (11738290_x_at) / RFU MYO3A (11730013_a_at) / Fold change /veh MYO3A (11730013_a_at) / RFU EBF3 (11725865_a_at) / Fold change /veh EBF3 (11725865_a_at) / RFU CAMK2N1 (11719241_x_at) / Fold change /veh CAMK2N1 (11719241_x_at) / RFU C5orf56 (11738088_a_at) / Fold change /veh C5orf56 (11738088_a_at) / RFU OLFML3 (11715873_a_at) / Fold change /veh OLFML3 (11715873_a_at) / RFU LOC100653217 /// NTM (11731650_a_at) / Fold change /veh LOC100653217 /// NTM (11731650_a_at) / RFU MAPK11 (11762145_a_at) / Fold change /veh MAPK11 (11762145_a_at) / RFU FIZ1 (11724087_x_at) / Fold change /veh FIZ1 (11724087_x_at) / RFU OASL (11726364_x_at) / Fold change /veh OASL (11726364_x_at) / RFU SOX15 (11748057_x_at) / Fold change /veh SOX15 (11748057_x_at) / RFU CD79A (11719716_a_at) / Fold change /veh CD79A (11719716_a_at) / RFU HIST1H1D (11736915_at) / Fold change /veh HIST1H1D (11736915_at) / RFU CASKIN2 (11723855_a_at) / Fold change /veh CASKIN2 (11723855_a_at) / RFU LOC730098 (11760151_x_at) / Fold change /veh LOC730098 (11760151_x_at) / RFU OR4N2 (11742367_at) / Fold change /veh OR4N2 (11742367_at) / RFU PRRT2 (11749266_a_at) / Fold change /veh PRRT2 (11749266_a_at) / RFU SNX32 (11753110_a_at) / Fold change /veh SNX32 (11753110_a_at) / RFU CDHR5 (11726645_a_at) / Fold change /veh CDHR5 (11726645_a_at) / RFU RCAN1 (11760418_a_at) / Fold change /veh RCAN1 (11760418_a_at) / RFU FAM167A (11723789_a_at) / Fold change /veh FAM167A (11723789_a_at) / RFU FAM26E (11764081_at) / Fold change /veh FAM26E (11764081_at) / RFU ISYNA1 (11749810_s_at) / Fold change /veh ISYNA1 (11749810_s_at) / RFU ACY1 (11761880_at) / Fold change /veh ACY1 (11761880_at) / RFU 11764098_at / Fold change /veh 11764098_at / RFU SAMD14 (11745864_x_at) / Fold change /veh SAMD14 (11745864_x_at) / RFU NPB (11741838_a_at) / Fold change /veh NPB (11741838_a_at) / RFU TMPRSS6 (11731388_a_at) / Fold change /veh TMPRSS6 (11731388_a_at) / RFU KRTAP10-2 (11738614_at) / Fold change /veh KRTAP10-2 (11738614_at) / RFU ARHGAP8 /// PRR5-ARHGAP8 (11727945_x_at) / Fold change /veh ARHGAP8 /// PRR5-ARHGAP8 (11727945_x_at) / RFU KRTAP5-7 /// NADSYN1 (11734609_at) / Fold change /veh KRTAP5-7 /// NADSYN1 (11734609_at) / RFU RASL12 (11751679_a_at) / Fold change /veh RASL12 (11751679_a_at) / RFU CDKN2B (11736163_a_at) / Fold change /veh CDKN2B (11736163_a_at) / RFU PRF1 (11729649_at) / Fold change /veh PRF1 (11729649_at) / RFU, ZNF638 /// ZNF638-IT1 / Fold change vs veh, ZNF638 /// ZNF638-IT1 / RFU, PANK3 / Fold change vs veh, PANK3 / RFU, SH3YL1 / Fold change vs veh, SH3YL1 / RFU, ZEB2 / Fold change vs veh, ZEB2 / RFU, NRIP1 / Fold change vs veh, NRIP1 / RFU, PTTG1IP / Fold change vs veh, PTTG1IP / RFU, CAPN2 / Fold change vs veh, CAPN2 / RFU, MED14 / Fold change vs veh, MED14 / RFU, SNORA58 / Fold change vs veh, SNORA58 / RFU, C1orf63 / Fold change vs veh, C1orf63 / RFU, LRRFIP1 / Fold change vs veh, LRRFIP1 / RFU, NDUFAF7 / Fold change vs veh, NDUFAF7 / RFU, SLC12A2 / Fold change vs veh, SLC12A2 / RFU, IBTK / Fold change vs veh, IBTK / RFU, ESF1 / Fold change vs veh, ESF1 / Fold change vs veh, TMEM50B / RFU, TAOK1 / Fold change vs veh, TAOK1 / RFU, ACBD3 / Fold change vs veh, ACBD3 / RFU, TMA16 / Fold change vs veh, TMA16 / RFU, RWDD3 / Fold change vs veh, RWDD3 / RFU, BCAT1 / Fold change vs veh, BCAT1 / RFU, EDEM3 / Fold change vs veh, EDEM3 / RFU, TMEM33 / Fold change vs veh, TMEM33 / RFU, WDR75 / Fold change vs veh, WDR75 / RFU, AHCTF1 / Fold change vs veh, AHCTF1 / RFU, TFRC / Fold change vs veh, TFRC / RFU, ZDHHC17 / Fold change vs veh, ZDHHC17 / RFU, NOM1 / Fold change vs veh, NOM1 / RFU, ARL8B / Fold change vs veh, ARL8B / RFU, ZBTB11 / Fold change vs veh, ZBTB11 / RFU, TAMM41 / Fold change vs veh, TAMM41 / RFU, KIAA1704 /// LOC100996395 / Fold change vs veh, KIAA1704 /// LOC100996395 / RFU, ING1 / Fold change vs veh, ING1 / RFU, TRMT61B / Fold change vs veh, TRMT61B / RFU, FUBP3 / Fold change vs veh, FUBP3 / RFU, TP53 / Fold change vs veh, TP53 / RFU, TNKS2 / Fold change vs veh, TNKS2 / RFU, ZFP14 / Fold change vs veh, ZFP14 / RFU, ACTR2 / Fold change vs veh, ACTR2 / RFU, PPP3R1 / Fold change vs veh, PPP3R1 / RFU, PIK3R1 / Fold change vs veh, PIK3R1 / RFU, HNRNPA1 / Fold change vs veh, HNRNPA1 / RFU, RNF170 / Fold change vs veh, RNF170 / RFU, ZNF28 / Fold change vs veh, ZNF28 / RFU, RNGTT / Fold change vs veh, RNGTT / RFU, OGT / Fold change vs veh, OGT / RFU, BRD1 / Fold change vs veh, BRD1 / RFU, MARS / Fold change vs veh, MARS / RFU, ZNF655 / Fold change vs veh, ZNF655 / RFU, FAHD1 / Fold change vs veh, FAHD1 / RFU, BDP1 / Fold change vs veh, BDP1 / RFU, LRRCC1 / Fold change vs veh, LRRCC1 / RFU, ARID1A / Fold change vs veh, ARID1A / RFU, ZNF146 / Fold change vs veh, ZNF146 / RFU, ZNF330 / Fold change vs veh, ZNF330 / RFU, GPN3 / Fold change vs veh, GPN3 / RFU, C9orf123 / Fold change vs veh, C9orf123 / RFU, N4BP2L2 / Fold change vs veh, N4BP2L2 / RFU, ARFIP1 / Fold change vs veh, ARFIP1 / RFU, FAM179B / Fold change vs veh, FAM179B / RFU, BCL10 / Fold change vs veh, BCL10 / RFU, UHRF1BP1L / Fold change vs veh, UHRF1BP1L / RFU, BET1 / Fold change vs veh, BET1 / RFU, CNOT2 / Fold change vs veh, CNOT2 / RFU, ZNF268 / Fold change vs veh, ZNF268 / Fold change vs veh, ZNF507 / RFU, DGCR2 / Fold change vs veh, DGCR2 / RFU, WDSUB1 / Fold change vs veh, WDSUB1 / Fold change vs veh, HSP90B1 /// MIR3652 / RFU, ADSS / Fold change vs veh, ADSS / RFU, GK / Fold change vs veh, GK / RFU, ZNF148 / Fold change vs veh, ZNF148 / RFU, TAF9 / Fold change vs veh, TAF9 / RFU, SLC1A5 / Fold change vs veh, SLC1A5 / RFU, SLMO2 / Fold change vs veh, SLMO2 / RFU, ABCC4 / Fold change vs veh, ABCC4 / RFU, LOC101060439 /// RAP1B / Fold change vs veh, LOC101060439 /// RAP1B / RFU, RFX7 / Fold change vs veh, RFX7 / RFU, GTPBP10 / Fold change vs veh, GTPBP10 / RFU, CNEP1R1 / Fold change vs veh, CNEP1R1 / RFU, BIVM-ERCC5 /// ERCC5 / Fold change vs veh, BIVM-ERCC5 /// ERCC5 / RFU, ILF3 / Fold change vs veh, ILF3 / RFU 11762660_at / Fold change /veh 11762660_at / RFU VCAN (11757783_s_at) / Fold change /veh VCAN (11757783_s_at) / RFU DDX43 (11728927_at) / Fold change /veh DDX43 (11728927_at) / RFU KRT8 (11758188_x_at) / Fold change /veh KRT8 (11758188_x_at) / RFU NKD1 (11759106_at) / Fold change /veh NKD1 (11759106_at) / RFU SRD5A1 (11742802_a_at) / Fold change /veh SRD5A1 (11742802_a_at) / RFU TPSAB1 /// TPSB2 (11721975_s_at) / Fold change /veh TPSAB1 /// TPSB2 (11721975_s_at) / RFU GSTM3 (11746129_a_at) / Fold change /veh GSTM3 (11746129_a_at) / RFU IL23R (11737362_x_at) / Fold change /veh IL23R (11737362_x_at) / RFU TMEM51 (11727254_a_at) / Fold change /veh TMEM51 (11727254_a_at) / RFU PIWIL2 (11732686_x_at) / Fold change /veh PIWIL2 (11732686_x_at) / RFU ORM1 (11744905_x_at) / Fold change /veh ORM1 (11744905_x_at) / RFU CCDC152 (11743942_at) / Fold change /veh CCDC152 (11743942_at) / RFU ECM1 (11717891_a_at) / Fold change /veh ECM1 (11717891_a_at) / RFU IL23R (11748794_a_at) / Fold change /veh IL23R (11748794_a_at) / RFU TNFAIP8L3 (11732012_x_at) / Fold change /veh TNFAIP8L3 (11732012_x_at) / RFU MBOAT4 (11741988_at) / Fold change /veh MBOAT4 (11741988_at) / RFU 11764193_at / Fold change /veh 11764193_at / RFU TMEM53 (11763286_at) / Fold change /veh TMEM53 (11763286_at) / RFU MAGEB2 (11727129_at) / Fold change /veh MAGEB2 (11727129_at) / RFU TMEM200A (11744735_a_at) / Fold change /veh TMEM200A (11744735_a_at) / RFU CCDC152 (11751479_a_at) / Fold change /veh CCDC152 (11751479_a_at) / RFU FAM211A (11726209_a_at) / Fold change /veh FAM211A (11726209_a_at) / RFU RGS16 (11746705_a_at) / Fold change /veh RGS16 (11746705_a_at) / RFU VCAN (11755009_s_at) / Fold change /veh VCAN (11755009_s_at) / RFU RHOB (11743442_s_at) / Fold change /veh RHOB (11743442_s_at) / RFU RGS16 (11720943_a_at) / Fold change /veh RGS16 (11720943_a_at) / RFU RGS16 (11720944_at) / Fold change /veh RGS16 (11720944_at) / RFU, VPS4B / Fold change vs veh, VPS4B / RFU, CREB1 / Fold change vs veh, CREB1 / RFU, DNAJC13 / Fold change vs veh, DNAJC13 / RFU, GNAQ / Fold change vs veh, GNAQ / RFU, CDK5R1 / Fold change vs veh, CDK5R1 / RFU, ZRANB3 / Fold change vs veh, ZRANB3 / RFU, CUL4A / Fold change vs veh, CUL4A / RFU, CCNY / Fold change vs veh, CCNY / RFU, UFL1 / Fold change vs veh, UFL1 / RFU, COG3 / Fold change vs veh, COG3 / RFU, DIAPH2 / Fold change vs veh, DIAPH2 / RFU, SKA2 / Fold change vs veh, SKA2 / RFU, AFF3 / Fold change vs veh, AFF3 / RFU, LMF1 / Fold change vs veh, LMF1 / RFU, IPO11 / Fold change vs veh, IPO11 / RFU, DFFB / Fold change vs veh, DFFB / RFU, FOXP1 / Fold change vs veh, FOXP1 / RFU, CARD8 / Fold change vs veh, CARD8 / RFU, STRN3 / Fold change vs veh, STRN3 / RFU, ADK / Fold change vs veh, ADK / RFU, RASSF2 / Fold change vs veh, RASSF2 / RFU, WIPF1 / Fold change vs veh, WIPF1 / RFU, LARP1B / Fold change vs veh, LARP1B / RFU, RASA1 / Fold change vs veh, RASA1 / RFU, RB1 / Fold change vs veh, RB1 / RFU, PPFIA1 / Fold change vs veh, PPFIA1 / RFU, MAT2A / Fold change vs veh, MAT2A / RFU, CCT5 / Fold change vs veh, CCT5 / RFU, WDR92 / Fold change vs veh, WDR92 / RFU, CUX1 / Fold change vs veh, CUX1 / RFU, TTC7A / Fold change vs veh, TTC7A / RFU, TMEM135 / Fold change vs veh, TMEM135 / RFU, DEPTOR / Fold change vs veh, DEPTOR / RFU, CPM / Fold change vs veh, CPM / RFU, DNAJB6 / Fold change vs veh, DNAJB6 / RFU, CACNA2D3 / Fold change vs veh, CACNA2D3 / RFU, DTX4 / Fold change vs veh, DTX4 / RFU, TFCP2 / Fold change vs veh, TFCP2 / RFU, GMCL1 /// GMCL1P1 / Fold change vs veh, GMCL1 /// GMCL1P1 / RFU, AEBP2 / Fold change vs veh, AEBP2 / RFU, SNHG1 /// SNORD22 /// SNORD25 /// SNORD26 /// SNORD27 /// SNORD28 /// SNORD29 /// SNORD31 / Fold change vs veh, SNHG1 /// SNORD22 /// SNORD25 /// SNORD26 /// SNORD27 /// SNORD28 /// SNORD29 /// SNORD31 / Fold change (Aza/veh), C12orf56 (ProbeSet 11735607_a_at) / Fold change (ACY-1035/veh), C12orf56 (ProbeSet 11735607_a_at) / Fold change (Aza/veh), FGFR1OP (ProbeSet 11751329_s_at) / Fold change (ACY-1035/veh), FGFR1OP (ProbeSet 11751329_s_at) / Fold change (Aza/veh), VPS36 (ProbeSet 11739960_a_at) / Fold change (ACY-1035/veh), VPS36 (ProbeSet 11739960_a_at) / RFU SYPL1 (11715823_x_at) / Fold change /veh SYPL1 (11715823_x_at) / RFU IGFBP7 (11715501_s_at) / Fold change /veh IGFBP7 (11715501_s_at) / RFU REEP3 (11722064_at) / Fold change /veh REEP3 (11722064_at) / RFU IGLL1 (11728026_x_at) / Fold change /veh IGLL1 (11728026_x_at): dose or concentration left out as unconfirmed
Details: ProbeSet 11747889_x_at; LIST B

## Nc1ccc(-c2cccs2)cc1NC(=O)c1ccc2c(c1)cc(C1CC1)n2CCN1CCOCC1 [ACY-1035]
  RFU, SH3YL1: 65.52 RFU
